# Source: US9938281B2 (Merck Sharp & Dohme Corp., priority 2012, dated 2018)
# How the values were obtained:
# PI3K-alpha = biological target: T1, PI3K-alpha (Homo sapiens, UniProt P42336); assay: HTRF PI3K biochemical assay, alpha isoform; conditions: ratio PI3K-alpha IC50 value / PI3K-delta IC50 value
# T1 construct: purchased Upstate; Millipore 14-602
# PI3K-delta = biological target: T2, PI3K-delta (Homo sapiens, UniProt O00329); assay: HTRF PI3K biochemical assay, delta isoform; conditions: form screened (neutral or TFA salt) given, read-out: PI3Kdelta IC50
# T2 construct: purchased Upstate; Millipore 14-604
# T2 sequence (O00329 whole entry, canonical isoform): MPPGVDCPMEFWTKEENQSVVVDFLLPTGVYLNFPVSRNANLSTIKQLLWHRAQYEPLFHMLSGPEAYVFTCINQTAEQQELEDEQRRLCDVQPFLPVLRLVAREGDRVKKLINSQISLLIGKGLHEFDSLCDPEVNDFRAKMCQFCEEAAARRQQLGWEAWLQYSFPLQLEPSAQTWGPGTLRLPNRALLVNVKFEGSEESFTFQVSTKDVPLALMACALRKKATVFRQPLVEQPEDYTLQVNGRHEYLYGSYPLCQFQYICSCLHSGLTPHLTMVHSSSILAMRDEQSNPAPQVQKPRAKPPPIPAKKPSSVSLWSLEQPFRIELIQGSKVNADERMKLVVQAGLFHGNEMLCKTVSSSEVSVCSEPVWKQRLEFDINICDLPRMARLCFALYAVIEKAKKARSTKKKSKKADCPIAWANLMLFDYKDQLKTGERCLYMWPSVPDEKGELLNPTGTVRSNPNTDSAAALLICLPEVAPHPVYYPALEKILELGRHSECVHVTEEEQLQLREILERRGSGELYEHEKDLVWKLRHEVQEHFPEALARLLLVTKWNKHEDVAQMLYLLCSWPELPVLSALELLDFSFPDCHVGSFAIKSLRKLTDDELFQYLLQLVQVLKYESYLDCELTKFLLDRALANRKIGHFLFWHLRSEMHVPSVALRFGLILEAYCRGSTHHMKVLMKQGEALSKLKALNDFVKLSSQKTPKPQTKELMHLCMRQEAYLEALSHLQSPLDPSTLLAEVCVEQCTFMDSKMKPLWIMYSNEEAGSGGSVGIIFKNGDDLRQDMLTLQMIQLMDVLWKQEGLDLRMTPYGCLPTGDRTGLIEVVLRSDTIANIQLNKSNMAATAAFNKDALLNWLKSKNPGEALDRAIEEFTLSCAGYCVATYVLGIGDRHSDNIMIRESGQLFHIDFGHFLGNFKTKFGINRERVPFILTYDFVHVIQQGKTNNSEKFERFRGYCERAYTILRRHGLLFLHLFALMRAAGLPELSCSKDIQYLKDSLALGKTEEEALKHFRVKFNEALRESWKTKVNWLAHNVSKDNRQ
# T2 sequence (P27986 whole entry partner, canonical isoform): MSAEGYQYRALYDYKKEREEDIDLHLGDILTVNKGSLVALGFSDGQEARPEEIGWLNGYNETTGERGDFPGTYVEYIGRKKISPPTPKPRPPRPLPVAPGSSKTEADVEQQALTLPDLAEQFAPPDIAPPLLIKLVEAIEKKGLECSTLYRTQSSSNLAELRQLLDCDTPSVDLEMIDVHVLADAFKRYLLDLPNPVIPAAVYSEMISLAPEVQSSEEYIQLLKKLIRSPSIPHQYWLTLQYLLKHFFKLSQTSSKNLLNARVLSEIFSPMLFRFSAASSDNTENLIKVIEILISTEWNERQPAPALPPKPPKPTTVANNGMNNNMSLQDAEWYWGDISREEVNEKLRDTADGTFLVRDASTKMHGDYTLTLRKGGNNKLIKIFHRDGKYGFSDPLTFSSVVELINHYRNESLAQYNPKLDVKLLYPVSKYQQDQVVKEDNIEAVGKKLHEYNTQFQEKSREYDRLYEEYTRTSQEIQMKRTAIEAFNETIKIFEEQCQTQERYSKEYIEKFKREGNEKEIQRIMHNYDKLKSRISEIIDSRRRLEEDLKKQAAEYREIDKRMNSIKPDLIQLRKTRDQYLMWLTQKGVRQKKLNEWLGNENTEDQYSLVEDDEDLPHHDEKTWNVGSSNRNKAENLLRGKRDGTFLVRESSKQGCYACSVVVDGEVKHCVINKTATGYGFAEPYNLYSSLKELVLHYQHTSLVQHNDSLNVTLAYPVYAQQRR
# T1 sequence (P42336 whole entry, canonical isoform): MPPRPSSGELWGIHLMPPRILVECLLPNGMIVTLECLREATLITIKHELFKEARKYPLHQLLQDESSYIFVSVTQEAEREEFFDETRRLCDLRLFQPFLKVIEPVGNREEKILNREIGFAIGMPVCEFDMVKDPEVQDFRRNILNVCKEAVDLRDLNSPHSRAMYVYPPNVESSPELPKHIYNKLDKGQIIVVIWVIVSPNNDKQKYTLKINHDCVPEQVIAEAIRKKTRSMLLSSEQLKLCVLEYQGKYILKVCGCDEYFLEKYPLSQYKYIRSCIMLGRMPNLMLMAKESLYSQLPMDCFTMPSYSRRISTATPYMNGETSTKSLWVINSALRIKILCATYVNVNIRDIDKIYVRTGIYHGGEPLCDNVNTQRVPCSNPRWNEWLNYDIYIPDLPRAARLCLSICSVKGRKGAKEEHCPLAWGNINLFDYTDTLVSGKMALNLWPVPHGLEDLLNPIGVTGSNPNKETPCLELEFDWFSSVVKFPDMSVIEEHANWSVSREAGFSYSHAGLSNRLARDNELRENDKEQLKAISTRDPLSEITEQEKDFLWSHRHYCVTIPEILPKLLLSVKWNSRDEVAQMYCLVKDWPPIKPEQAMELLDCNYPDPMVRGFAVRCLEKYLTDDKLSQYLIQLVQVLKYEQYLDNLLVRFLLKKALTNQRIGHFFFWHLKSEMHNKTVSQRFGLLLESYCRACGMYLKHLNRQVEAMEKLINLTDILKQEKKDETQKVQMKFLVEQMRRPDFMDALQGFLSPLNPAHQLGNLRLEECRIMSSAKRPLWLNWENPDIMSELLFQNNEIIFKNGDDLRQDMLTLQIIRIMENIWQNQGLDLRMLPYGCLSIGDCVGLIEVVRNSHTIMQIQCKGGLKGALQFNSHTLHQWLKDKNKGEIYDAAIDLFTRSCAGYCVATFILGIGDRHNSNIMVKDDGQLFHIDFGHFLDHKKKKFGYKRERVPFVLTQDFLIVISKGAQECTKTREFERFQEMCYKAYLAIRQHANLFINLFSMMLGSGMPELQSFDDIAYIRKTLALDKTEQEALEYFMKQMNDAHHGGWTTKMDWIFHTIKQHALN
# T1 sequence (P27986 whole entry partner, canonical isoform): as the sequence (P27986 whole entry partner, canonical isoform) above
SMILES,Selectivity versus PI3Kalpha (PI3K-alpha),IC50 (PI3K-delta)
"CCn1c(-c2cnc(C)nc2)nc2c(N[C@H]3CCN(C(=O)C4CCCC4)C3)ncnc21 [Compound 2-23, (S)-cyclopentyl(3-((9-ethyl-8-(2-methylpyrimidin-5-yl)-9H-purin-6-yl)amino)pyrrolidin-1-yl)methanone]",>10,8 nM
"CCn1c(-c2cnc(C)nc2)nc2c(N[C@H]3CCN(C(=O)C4CC(F)(F)C4)C3)ncnc21 [Compound 2-24, (S)-(3,3-difluorocyclobutyl)(3-((9-ethyl-8-(2-methylpyrimidin-5-yl)-9H-purin-6-yl)amino)pyrrolidin-1-yl)methanone]",>10,6.8 nM
"CCC(=O)N1CCC[C@H](Nc2ncnc3c2nc(-c2cnc(C)nc2)n3CC)C1 [Compound 2-27, 9-ethyl-8-(2-methylpyrimidin-5-yl)-N-[(3S)-1-propanoylpiperidin-3-yl]-9H-purin-6-amine]",>10,28 nM
"CCn1c(-c2cnc(C)nc2)nc2c(N[C@H]3CCCN(C(=O)C4CC4)C3)ncnc21 [Compound 2-28, N-[(3S)-1-(cyclopropylcarbonyl)piperidin-3-yl]-9-ethyl-8-(2-methylpyrimn-5-yl)-9H-purin-6-amine]",>10,15 nM
"CCn1c(-c2cnc(C)nc2)nc2c(N[C@H]3CCN(C(=O)CN(C)C)C3)ncnc21 [Compound 2-31, N-{(3S)-1-[(dimethylamino)acetyl]pyrroli-din-3-yl}-9-ethyl-8-(2-methylpyrimidin-5-yl)-9H-purin-6-amine]",>10,10 nM
"CCn1c(-c2cnc(C)nc2)nc2c(N[C@H]3CCN(C(=O)[C@H]4C[C@@H](OC)C4)C3)ncnc21 [Compound 2-39, 9-ethyl-N-{(3S)-1-[(cis-3-methoxycyclobutyl)carbonyl]pyrrolidin-3-yl}-8-(2-methylpyrimidin-5-yl)-9H-purin-6-amine]",>10,< 1 nM
"CCn1c(-c2cnc(C)nc2)nc2c(N[C@H]3CCN(C(=O)[C@H]4CCOC4)C3)ncnc21 [Compound 2-41, 9-ethyl-8-(2-methylpyrimidin-5-yl)-N-{(3S)-1-[(3S)-tetrahydrofuran-3-ylcarbonyl]pyrrolidin-3-yl}-9H-purin-6-amine]",>10,4.3 nM
"CCn1c(-c2cnc(C)nc2)nc2c(N[C@H]3CCN(C(=O)[C@H]4CCCN4C)C3)ncnc21 [Compound 2-42, 9-ethyl-N-[(3S)-1-(1-methyl-D-prolyl)pyrrolidin-3-yl]-8-(2-methylpyrimidin-5-yl)-9H-purin-6-amine]",>10,29 nM
"CCn1c(-c2cnc(C)nc2)nc2c(N[C@H]3CCN(C(=O)[C@@H]4CCCN4C)C3)ncnc21 [Compound 2-43, 9-ethyl-N-[(3S)-1-(1-methyl-L-prolyl)pyrrolidin-3-yl]-8-(2-methylpyrimidin-5-yl)-9H-purin-6-amine]",>10,16 nM
"CCC(=O)N1CC(Nc2ncnc3c2nc(-c2cnn(CC)c2C)n3C)C1 [Compound 2-45, 8-(1-ethyl-5-methyl-1H-pyrazol-4-yl)-9-methyl-N-(1-propanoylazetidin-3-yl)-9H-purin-6-amine]",>10,57 nM
"CCC(=O)N1CCC[C@H](Nc2ncnc3c2nc(-c2cnn(CC)c2C)n3C)C1 [Compound 2-46, 8-(1-ethyl-5-methyl-1H-pyrazol-4-yl)-9-methyl-N-[(3S)-1-propanoylpiperidin-3-yl]-9H-purin-6-amine]",>10,9.2 nM
"CCn1c(-c2ccc(C(F)(F)F)nc2)nc2c(N[C@H]3CCN(C(=O)C4CC4)C3)ncnc21 [Compound 2-49, N-[(3S)-1-(cyclopropylcarbonyl)pyrrolidin-3-yl]-9-ethyl-8-[6-(trifluoromethyl)pyridin-3-yl]-9H-purin-6-amine]",>10,1 nM
"CCn1c(-c2ccc(OC)nc2)nc2c(N[C@H]3CCN(C(=O)C4CC4)C3)ncnc21 [Compound 2-50, N-[(3S)-1-(cyclopropylcarbonyl)pyrrolidin-3-yl]-9-ethyl-8-(6-methoxypyridin-3-yl)-9H-purin-6-amine]",>10,< 1 nM
"CCn1c(-c2cnc(C)nc2)nc2c(N[C@H]3C[C@H](CO)N(C(=O)C4CC4)C3)ncnc21 [Compound 2-52, [(2R,4S)-1-(cyclopropylcarbonyl)-4-{[9-ethyl-8-(2-methylpyrimidin-5-yl)-9H-purin-6-yl]amino}pyrrolidin-2-yl]methanol]",>10,4.9 nM
"CCn1c(-c2cnc(C)nc2)nc2c(N[C@H]3C[C@@H](C(=O)OC)N(C(=O)C4CC4)C3)ncnc21 [Compound 2-54, methyl (4S)-1-(cyclopropylcarbonyl)-4-{[9-ethyl-8-(2-methylpyrimidin-5-yl)-9H-purin-6-yl]amino}-L-prolinate]",>10,63 nM
"CCn1c(-c2cnc(C)nc2)nc2c(N[C@H]3CCN(C(=O)C4C(C)(C)C4(C)C)C3)ncnc21 [Compound 2-60, 9-ethyl-8-(2-methylpyrimidin-5-yl)-N-{(3S)-1-[(2,2,3,3-tetramethylcyclopropyl)carbon-yl]pyrrolidin-3-yl}-9H-purin-6-amine]",>10,1.6 nM

# Next, values leading:
Selectivity versus PI3Kalpha (PI3K-alpha),IC50 (PI3K-delta),SMILES
>10,11 nM,"CCn1ncc(-c2nc3c(N[C@H]4CCCN(C(=O)C5CCOCC5)C4)ncnc3n2C)c1C [Compound 2-29, 8-(1-ethyl-5-methyl-1H-pyrazol-4-yl)-9-methyl-N-[(3S)-1-(tetrahydro-2H-pyran-4-ylcarbonyl)piperidin-3-yl]-9H-purin-6-amine]"
>10,15 nM,"CCn1c(-c2cnc(C)nc2)nc2c(N[C@H]3CCN(C(=O)CC(C)(C)O)C3)ncnc21 [Compound 2-30, 4-[(3S)-3-{[9-ethyl-8-(2-methylpyrimidin-5-yl)-9H-purin-6-yl]amino}pyrrolidin-1-yl]-2-methyl-4-oxobutan-2-ol]"
>10,17 nM,"CCn1c(-c2cnc(C)nc2)nc2c(N[C@H]3CCN(C(=O)Cc4ccccc4)C3)ncnc21 [Compound 2-36, 9-ethyl-8-(2-methylpyrimidin-5-yl)-N-[(3S)-1-(phenylacetyl)pyrrolidin-3-yl]-9H-purin-6-amine]"
>10,1.7 nM,"CCn1c(-c2cnc(C)nc2)nc2c(N[C@H]3CCN(C(=O)[C@H]4C[C@H](OC)C4)C3)ncnc21 [Compound 2-38, 9-ethyl-N-{(3S)-1-[(trans-3-methoxycyclobutyl)carbonyl]pyrrolidin-3-yl}-8-(2-methylpyrimidin-5-yl)-9H-purin-6-amine]"
>10,1.6 nM,"CCn1c(-c2cnc(C)nc2)nc2c(N[C@H]3CCN(C(=O)[C@@H]4CCOC4)C3)ncnc21 [Compound 2-40, 9-ethyl-8-(2-methylpyrimidin-5-yl)-N-{(3S)-1-[(3R)-tetrahydrofuran-3-ylcarbonyl]pyrrolidin-3-yl}-9H-purin-6-amine]"
>10,9 nM,"CCn1c(-c2cnc(C)nc2)nc2c(N[C@H]3CCCN(C(=O)C(C)C)C3)ncnc21 [Compound 2-44, 9-ethyl-N-[(3S)-1-(2-methylpropanoyl)piperidin-3-yl]-8-(2-methylpyrimidin-5-yl)-9H-purin-6-amine]"
>10,17 nM,"CCn1c(-c2cnc(C)nc2)nc2c(N[C@H]3CCN(C(=O)C4(C)CC4)C3)ncnc21 [Compound 2-47, 9-ethyl-N-{(3S)-1-[(1-methylcyclopropyl)carbonyl]pyrrolidin-3-yl}-8-(2-methylpyrimidin-5-yl)-9H-purin-6-amine]"
>10,16 nM,"CCn1ncc(-c2nc3c(NC4CN(C(=O)C5CCOCC5)C4)ncnc3n2C)c1C [Compound 2-48, 8-(1-ethyl-5-methyl-1H-pyrazol-4-yl)-9-methyl-N-[1-(tetrahydro-2H-pyran-4-ylcarbonyl)azetidin-3-yl]-9H-purin-6-amine]"
>10,< 1 nM,"CCn1c(-c2ccc(C(F)(F)F)nc2)nc2c(N[C@H]3CCN(C(=O)[C@@H]4CC4(C)C)C3)ncnc21 [Compound 2-51, N-[(3S)-1-{[(1R)-2,2-dimethylcyclopropyl]carbonyl}pyrrolidin-3-yl]-9-ethyl-8-[6-(trifluoromethyl)pyridin-3-yl]-9H-purin-6-amine]"
>10,4.7 nM,"CCn1c(-c2cnc(C)nc2)nc2c(N[C@H]3C[C@H](C(=O)OC)N(C(=O)C4CC4)C3)ncnc21 [Compound 2-53, methyl (4S)-1-(cyclopropylcarbonyl)-4-{[9-ethyl-8-(2-methylpyrimidin-5-yl)-9H-purin-6-yl]amino}-D-prolinate]"
>10,7.1 nM,"CCn1c(-c2cnc(C)nc2)nc2c(N[C@H]3CCN(C(=O)C4(COC)CCC4)C3)ncnc21 [Compound 2-57, 9-ethyl-N-[(3S)-1-{[1-(methoxymethyl)cyclobutyl]carbonyl}pyrrolidin-3-yl]-8-(2-methylpyrimidin-5-yl)-9H-purin-6-amine]"
>10,22 nM,"CCn1c(-c2cnc(C)nc2)nc2c(N[C@H]3CCN(C(=O)C4(O)CCCC4)C3)ncnc21 [Compound 2-58, 1-{[(3S)-3-{[9-ethyl-8-(2-methylpyrimidin-5-yl)-9H-purin-6-yl]amino}pyrrolidin-1-yl]carbonyl}cyclopentanol]"
>10,< 1 nM,"CCn1c(-c2cnc(C)nc2)nc2c(N[C@H]3CCN(C(=O)C4CC(C)(C)C4)C3)ncnc21 [Compound 2-59, N-{(3S)-1-[(3,3-dimethylcyclobutyl)carbonyl]pyrrolidin-3-yl}-9-ethyl-8-(2-methylpyrimidin-5-yl)-9H-purin-6-amine]"
